Tests used:
[1] = target: T1, SARS-CoV-2 Mpro (Severe acute respiratory syndrome coronavirus 2, UniProt P0DTD1); experiment: biochemical; format: biochemical; details: aldehyde hydration penalty taken into account
[2] = target: T1, SARS-CoV-2 Mpro; experiment: Covalent bond (adduct) formation kinetics by IR-MALDESI intact protein MS; format: binding; details: for covalent complex formation in the titration of compound versus Mpro: up to 5-fold molar excess of compound, unquenched condition for compound 5
[3] = target: His tag SARS-CoV-2 3CLpro (1-306) F305A, Q306A (Severe acute respiratory syndrome coronavirus 2, UniProt P0DTD1, F3568A/Q3569A); format: binding

| Compound | likely affinity accounting for the hydration penalty [1] [pM] | time for which covalent binding persists after chase (reversibility of adduct formation) [2] | covalent complex formation in the titration of compound versus Mpro [2] | Kd [3] | T1/2 [3] |
| --- | --- | --- | --- | --- | --- |
| COc1cccc2[nH]c(C(=O)N[C@@H](CC3CC3)C(=O)N[C@H](C=O)C[C@@H]3CCNC3=O)cc12 [Compound 1, N-((S)-3-cyclopropyl-1-oxo-1-(((S)-1-oxo-3-((S)-2-oxopyrrolidin-3-yl)propan-2-yl)amino)propan-2-yl)-4-methoxy-1H-indole-2-carboxamide] | ~10 | at least 4 h | did not reach saturation | – | – |
| COc1cccc2[nH]c(C(=O)N[C@@H](CC3CC3)C(=O)N[C@H](C#N)C[C@@H]3CCNC3=O)cc12 [Compound 5, N-((S)-1-(((S)-1-cyano-2-((S)-2-oxopyrrolidin-3-yl)ethyl)amino)-3-cyclopropyl-1-oxopropan-2-yl)-4-methoxy-1H-indole-2-carboxamide] | – | ≤ 1 h | ~100% | – | – |
| O=C[C@H](C[C@@H]1CCNC1=O)NC(=O)[C@H](CC1CC1)NC(=O)OCc1ccccc1 [Compound 2, benzyl ((S)-3-cyclopropyl-1-oxo-1-(((S)-1-oxo-3-((S)-2-oxopyrrolidin-3-yl)propan-2-yl)amino)propan-2-yl)carbamate] | ~10 | – | – | – | – |
| CS(=O)(=O)CC[C@@H](C#N)NC(=O)[C@H](CC1CC1)NC(=O)OCc1ccccc1 [Compound 8, benzyl ((S)-1-(((S)-1-cyano-3-(methylsulfonyl)propyl)amino)-3-cyclopropyl-1-oxopropan-2-yl)carbamate] | – | – | – | No Activity | No activity |

From paper PMC12246642 (iScience, 2025)
